Measured values as given in US10662193B2, “Carbazole and carboline compounds for use in the diagnosis, treatment, alleviation or prevention of disorders associated with amyloid or amyloid-like proteins” (AC IMMUNE SA, priority 2014, dated 2020).

How the values were obtained:
[1] = test system: tau tangles/Aβ plaques on AD brain sections; test: Assay 1: direct staining of human Alzheimer's disease brain sections (fluorescence); assay type: binding; design: key to Direct staining of tau tangles/Aβ plaques on AD brain sections at 100 μM / Direct staining of tau tangles on AD brain sections at 100 μM / Direct staining of Aβ plaques on AD brain sections at 100 μM / Direct staining of tau tangles on AD brain sections (footnote a: at 250 μM): − (No); +++ (strong); ++ (good); + (weak); conditions: tangles; for Direct staining of tau tangles on AD brain sections at 100 μM: 100 μM compound
Outline: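 Compounds (100 μM, 50% aqueous ethanol, 20 min, RT, dark) applied directly to fixed […] frozen amygdala sections of Braak stage V-VI Alzheimer's brains. After washing and 0.1% Sudan Black treatment against autofluorescence, sections were imaged microscopically for fluorescent staining.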

[2] = test system: tau tangles on AD brain section; test: Assay 1: displacement of RefA on human AD brain sections (fluorescence); assay type: binding; conditions: for Selectivity (tau/Abeta): ratio of competition on tau tangles to competition on Aβ plaques
Outline: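 Braak V-VI AD amygdala frozen sections were preincubated with test compound at 250 μM in 50% ethanol for 20 min at room temperature. Fluorescent RefA at 1 μM in 50% ethanol was then added for 20 min, imaged at 470 nm excitation, and tangles were quantified.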

AD brain-enriched PHF = AD brain-enriched PHF (Homo sapiens, UniProt P10636); test: Assay 2 (filter trap): [3H]RefA radio-binding competition assay and Ki on PHF; conditions: [^3H]RefA 10 nM, PHF diluted 1/80, compound 0.12 nM to 50 μM
Sequence of AD brain-enriched PHF (P10636 623-708 limits assumed): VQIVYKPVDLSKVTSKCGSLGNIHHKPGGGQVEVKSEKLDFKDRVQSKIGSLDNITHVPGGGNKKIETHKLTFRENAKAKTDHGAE
Description: Displacement of [^3H]RefA by Compounds of this Invention
50 g of frontal lobe tissue from post-mortem brain of an Alzheimer's disease (AD) patient were obtained from the London Tissue Bank. The patient was a […] and died […]. The brain sample was collected 5 hours post-mortem and characterized for Braak disease stage (Braak, H.; Braak, E. Acta Neuropathol., 1991, 82, 239-259) as stage VI. For the enrichment of PHF's, around 15 g of the AD human brain was thawed on ice and homogenized with 50 ml of homogenization buffer [0.75 M NaCl in RAB buffer (100 mM 2-(N-morpholino) ethanesulfonic acid (MES), 1 mM EGTA, 0.5 mM MgSO4, 2 mM DTT, pH 6.8) supplemented with protease inhibitors (Complete; Roche 11697498001) in a glass Dounce homogenizer. The homogenate was then incubated at 4° C. for 20 min to let any residual microtubules depolymerize, before the homogenate was transferred into polycarbonate centrifuge bottles (16×76 mm; Beckman 355603) and centrifuged at 11,000 g (12,700 RPM) in an ultracentrifuge (Beckman, XL100K) for 20 min at 4° C. using the pre-cooled 70.1 rotor (Beckman, 342184). Pellets were kept on ice. Supernatants were pooled into polycarbonate bottles and centrifuged again at 100,000 g (38,000 RPM) for 1 h at 4° C. in the 70.1 Ti rotor to isolate PHF-rich pellets, whereas soluble tau remained in the supernatants. The pellets from the first and second centrifugations were re-suspended in 120 mL of extraction buffer [10 mM Tris-HCl pH 7.4, 10% sucrose, 0.85 M NaCl, 1% protease inhibitor (Calbiochem 539131), 1 mM EGTA, 1% phosphatase inhibitor (Sigma P5726 and P0044)]. The solution was then transferred into polycarbonate centrifuge bottles (16×76 mm; Beckman 355603) and centrifuged at 15,000 g (14,800 RPM) in an ultracentrifuge (Beckman, XL100K) for 20 min at 4° C. using the 70.1 Ti rotor. In the presence of 10% sucrose and at low speed centrifugation, most PHF remained in the supernatant whereas intact or fragmented NFTs and larger PHF aggregates were pelleted. The pellets were discarded. 20% Sarkosyl (Sigma L7414-10ML) was added to the supernatants to a final concentration of 1% and stirred at room temperature for 1 h. This solution was then centrifuged into polycarbonate bottles at 100,000 g (38,000 RPM) for 1 h at 4° C. in the 70.1 Ti rotor, and the pellets containing PHF-rich material were re-suspended in a total final volume of 1.5 mL of PBS, aliquoted and stored at −80° C.
[^3H]RefA Radio-Binding Competition Assay
AD brain-enriched PHF diluted 1/80 were incubated in the presence of [^3H]RefA at 10 nM and the example compounds of this invention at 2.5 μM (250× excess), for 45 minutes at 37° C. Samples were then analyzed by on GF/B filter plates as described above (in the section “[^3H]RefA radio-binding assay and determination of the dissociation constant (Kd)). Non-specific signal was determined again with an excess of un-labeled RefA and specific binding calculated by subtracting the non-specific signal from the total signal. Competition was calculated as percent, where 0% was defined as the specific binding in the presence of vehicle (2.8% DMSO in PBS) and 100% as the values obtained in the presence of excess cold RefA. Similar assays were performed to determine the competition of the cold compounds on [^3H]RefA on in vitro aggregated recombinant human tau or Abeta1-42 For both recombinant proteins, 20 μg/mL of aggregates were incubated with 10 nM of [^3H]RefA for recombinant human tau or 80 nM of [^3H]RefA for recombinant human Abeta1-42.
Determination of the Binding Affinity (Ki)
Samples were then analyzed on GF/B filter plates as described above and Ki values calculated using Prism V5 (GraphPad).

Cn1c2ccncc2c2ccc(Nc3ccc(F)c(F)c3)nc21 [Example 2]
Direct staining of tau tangles on AD brain sections (footnote a: at 250 μM) ([1]; 250 μM compound): + (tangles)^a | Competition on AD brain section tau tangles (1 μM RefA vs. 250 μM compound) [2]: 96% | Selectivity (tau/Abeta) [2]: >96 fold | Ki (AD brain-enriched PHF): 22 nM

Cn1c2ccncc2c2ccc(Nc3ccc(OC(F)F)cc3)nc21 [Example 9]
Direct staining of tau tangles on AD brain sections at 100 μM [1]: ++ (tangles) | Competition on AD brain section tau tangles (1 μM RefA vs. 250 μM compound) [2]: 97% | Selectivity (tau/Abeta) [2]: >97 fold | Ki (AD brain-enriched PHF): 7.8 nM

Cn1c2ccncc2c2ccc(Nc3cccc(OCCF)c3)nc21 [Example 8]
Direct staining of tau tangles on AD brain sections at 100 μM [1]: ++ (tangles) | Competition on AD brain section tau tangles (1 μM RefA vs. 250 μM compound) [2]: 90% | Selectivity (tau/Abeta) [2]: ~15 fold | Ki (AD brain-enriched PHF): 26 nM
